Test results: patent publication US20180037568A1, “MODULATORS OF METHYL MODIFYING ENZYMES, COMPOSITIONS AND USES THEREOF” (Constellation Pharmaceuticals, Inc., priority 2015, published 2018)
Like-named read-outs stand apart in the source and are kept apart here.

Experiments:
[1] = molecular target: EZH2 (Homo sapiens, UniProt Q15910); test: EZH2 nuc BSA Brij 1.5 (IC50): rPRC2, biotinylated oligonucleosome substrate, 3H SAM FlashPlate; assay type: biochemical
Procedure: EZH2 Nuc BSA Brij 1.5 (IC50):
Assays were carried out by mixing rPRC2 together with biotinylated oligonucleosome substrates in the presence of the radio-labeled enzyme co-factor, S-adenosyl-L-methionine (^3H SAM) (Perkin Elmer) and monitoring the enzymatically mediated transfer of tritiated methyl groups from ^3H SAM to histone lysine residues. The amount of resulting tritiated methyl histone product was measured by first capturing the biotinylated oligonucleosomes in streptavidin (SAV) coated FlashPlates (Perkin Elmer), followed by a wash step to remove un-reacted ^3H SAM, and then counting on a TopCount NXT 384 well plate scintillation counter (Perkin Elmer). The final assay conditions for EZH2 were as follows: 50 mM Tris Buffer pH 8.5, 1 mM DTT, 69 μM Brij-35 detergent, 5.0 mM MgCl2, 0.1 mg/mL BSA, 0.2 μM ^3H SAM, 0.2 μM biotinylated oligonucleosomes, 3.6 μM H3K27me3 peptide and 2 nM EZH2.
Compound IC50 Measurements were Obtained as Follows:
Compounds were first dissolved in 100% DMSO as 10 mM stock solutions. Ten point dose response curves were generated by dispensing varying amounts of the 10 mM compound solution in 10 wells of the 384 well plate (Echo; Labcyte), pure DMSO was then used to backfill the wells to insure all wells have the same amount of DMSO. A 12.5 μL volume of the HMT enzyme, H3K27me3 peptide and oligonucleosome substrate in assay buffer was added to each well of the assay plate using a Multidrop Combi (ThermoFisher). Compounds were pre-incubated with the enzyme for 20 min, followed by initiation of the methyltransferase reaction by addition of 12.5 μL of ^3H SAM in assay buffer (final volume=25 μL). The final concentrations of compounds ranged from a top default concentration of 80 μM down to 0.16 μM in ten 2-fold dilution steps. Reactions were carried out for 60 minutes and quenched with 20 μL per well of 1.96 mM SAH, 50 mM Tris pH 8.5, 200 mM EDTA. Stopped reactions were transferred to SAV coated Flashplates (Perkin Elmer), incubated for 120 min, washed with a plate washer, and then read on the TopCount NXT (1.0 min/well) to measure the amount of methyl histone product formed during the reaction. The amount of methyl histone product was compared with the amount of product formed in the 0% and 100% inhibition control wells allowing the calculation of % Inhibition in the presence of the individual compounds at various concentrations. IC50's were computed using a 4 parameter fit non-linear curve fitting software package (XLFIT, part of the database package, ActivityBase (IDBS)) where the four parameters were IC50, Hill slope, pre-transitional baseline (0% INH), and post-transitional baseline (100% INH); with the latter two parameters being fixed to zero and 100%, respectively, by default.

[2] = molecular target: T1, PRC2 containing wt EZH2 (Homo sapiens, UniProt Q15910); test: EZH2 pep BSA Brij 4.0 LowE (IC50): 3H-SAM incorporation into biotinylated H3 peptide; assay type: biochemical; conditions: 20 pM PRC2 wt EZH2, 0.9 μM 3H-SAM, biotinylated H3 peptide substrate, 2 μM H3K27me3 activating peptide
T1 construct: made in house
T1 sequence (Q15910 whole entry): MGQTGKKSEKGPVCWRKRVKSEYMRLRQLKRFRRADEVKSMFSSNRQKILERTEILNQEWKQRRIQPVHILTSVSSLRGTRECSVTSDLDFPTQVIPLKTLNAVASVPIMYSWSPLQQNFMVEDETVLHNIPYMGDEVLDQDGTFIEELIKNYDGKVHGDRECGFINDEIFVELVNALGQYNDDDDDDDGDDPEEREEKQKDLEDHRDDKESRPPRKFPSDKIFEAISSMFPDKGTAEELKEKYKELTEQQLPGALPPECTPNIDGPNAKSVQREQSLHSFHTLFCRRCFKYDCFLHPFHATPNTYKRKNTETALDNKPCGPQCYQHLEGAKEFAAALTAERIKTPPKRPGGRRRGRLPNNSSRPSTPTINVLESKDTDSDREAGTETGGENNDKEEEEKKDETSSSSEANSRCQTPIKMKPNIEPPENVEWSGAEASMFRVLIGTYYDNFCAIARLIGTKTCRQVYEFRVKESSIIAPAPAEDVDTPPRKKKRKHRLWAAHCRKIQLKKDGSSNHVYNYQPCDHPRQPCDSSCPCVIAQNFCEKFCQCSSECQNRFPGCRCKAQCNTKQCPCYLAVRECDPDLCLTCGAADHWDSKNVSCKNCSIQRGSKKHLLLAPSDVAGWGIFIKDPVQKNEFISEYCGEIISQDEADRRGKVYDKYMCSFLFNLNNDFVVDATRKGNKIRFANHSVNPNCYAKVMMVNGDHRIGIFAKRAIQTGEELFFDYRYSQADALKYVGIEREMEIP
T1 sequence (O75530 whole entry partner): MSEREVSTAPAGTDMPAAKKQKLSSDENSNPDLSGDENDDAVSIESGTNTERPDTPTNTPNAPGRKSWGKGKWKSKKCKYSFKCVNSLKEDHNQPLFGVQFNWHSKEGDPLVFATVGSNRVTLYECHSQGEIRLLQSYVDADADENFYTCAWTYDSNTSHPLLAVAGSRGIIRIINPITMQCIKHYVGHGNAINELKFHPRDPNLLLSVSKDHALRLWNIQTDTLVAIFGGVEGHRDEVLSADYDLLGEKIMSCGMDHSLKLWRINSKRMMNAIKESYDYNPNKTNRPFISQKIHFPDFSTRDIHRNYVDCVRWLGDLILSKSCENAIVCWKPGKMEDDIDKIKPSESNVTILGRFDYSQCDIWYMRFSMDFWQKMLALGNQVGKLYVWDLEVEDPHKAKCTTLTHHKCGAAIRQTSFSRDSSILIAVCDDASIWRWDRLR
T1 sequence (Q15022 whole entry partner): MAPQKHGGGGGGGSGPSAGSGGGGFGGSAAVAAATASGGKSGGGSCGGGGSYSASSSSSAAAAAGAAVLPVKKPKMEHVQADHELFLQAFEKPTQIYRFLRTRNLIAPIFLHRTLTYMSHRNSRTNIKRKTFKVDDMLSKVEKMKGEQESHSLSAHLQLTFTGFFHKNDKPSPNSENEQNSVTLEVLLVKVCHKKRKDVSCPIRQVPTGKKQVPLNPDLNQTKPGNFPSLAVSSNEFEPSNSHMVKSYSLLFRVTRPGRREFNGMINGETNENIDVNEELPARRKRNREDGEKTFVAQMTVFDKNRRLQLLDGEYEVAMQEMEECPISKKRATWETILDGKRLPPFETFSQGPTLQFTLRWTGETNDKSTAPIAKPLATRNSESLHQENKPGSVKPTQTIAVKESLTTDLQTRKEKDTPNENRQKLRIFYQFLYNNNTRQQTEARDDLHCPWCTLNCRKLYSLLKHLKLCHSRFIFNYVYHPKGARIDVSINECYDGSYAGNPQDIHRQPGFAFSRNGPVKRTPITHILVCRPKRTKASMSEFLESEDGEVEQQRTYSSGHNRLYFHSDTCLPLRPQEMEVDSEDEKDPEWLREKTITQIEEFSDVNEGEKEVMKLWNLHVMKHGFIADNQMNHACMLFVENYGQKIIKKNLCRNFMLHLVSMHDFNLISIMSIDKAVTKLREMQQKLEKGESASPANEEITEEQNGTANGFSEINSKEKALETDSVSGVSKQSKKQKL
T1 sequence (Q09028 whole entry partner): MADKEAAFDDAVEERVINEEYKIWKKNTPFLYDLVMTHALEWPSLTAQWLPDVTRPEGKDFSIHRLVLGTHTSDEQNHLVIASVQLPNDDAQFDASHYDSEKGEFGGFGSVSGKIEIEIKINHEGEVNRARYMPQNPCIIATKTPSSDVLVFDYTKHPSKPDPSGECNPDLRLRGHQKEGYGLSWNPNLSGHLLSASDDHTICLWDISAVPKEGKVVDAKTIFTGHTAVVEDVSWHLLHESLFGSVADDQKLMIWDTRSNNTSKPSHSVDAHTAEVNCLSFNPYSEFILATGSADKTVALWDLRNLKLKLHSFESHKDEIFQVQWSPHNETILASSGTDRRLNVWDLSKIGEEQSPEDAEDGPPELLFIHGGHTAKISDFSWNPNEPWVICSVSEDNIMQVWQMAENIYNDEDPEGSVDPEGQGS
T1 sequence (Q6ZN18 whole entry partner): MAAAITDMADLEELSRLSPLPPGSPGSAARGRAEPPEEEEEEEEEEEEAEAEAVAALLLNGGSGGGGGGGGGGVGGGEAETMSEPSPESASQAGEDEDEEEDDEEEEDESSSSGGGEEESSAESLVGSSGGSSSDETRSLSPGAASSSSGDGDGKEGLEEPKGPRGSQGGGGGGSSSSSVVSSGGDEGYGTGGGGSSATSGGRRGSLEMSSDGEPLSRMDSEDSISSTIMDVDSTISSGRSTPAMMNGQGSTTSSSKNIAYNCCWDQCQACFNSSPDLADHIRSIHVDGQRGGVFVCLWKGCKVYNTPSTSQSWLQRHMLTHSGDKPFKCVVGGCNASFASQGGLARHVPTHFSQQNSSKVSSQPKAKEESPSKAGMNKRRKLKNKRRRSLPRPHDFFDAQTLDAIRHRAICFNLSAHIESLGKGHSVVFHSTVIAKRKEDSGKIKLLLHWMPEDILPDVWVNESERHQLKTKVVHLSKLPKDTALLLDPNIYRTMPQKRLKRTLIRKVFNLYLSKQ
In short: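 PRC2 (wt EZH2, 20 pM) pre-incubated 120 min with compound, 0.9 μM 3H-SAM and 2 μM H3K27me3 activating peptide in pH 8.5 Tris/DTT/Brij-35/0.1% BSA, 0.8% DMSO. Biotinylated H3K27me1 peptide added (2 μM stock), 5 h at room temperature, EDTA/SAH quench, streptavidin Flashplate capture. IC50 from four-parameter fit versus full-activity and no-enzyme controls.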

[3] = system: H3K27me3 mark; test: H3K27me3 Alpha Hela Assay (AlphaLISA); assay type: cell-based; conditions: Hela cells, read-out: EZH2 Cell H3K27me3 Alpha HeLa (EC50 K27me3)
In short: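 HeLa cells at 1,000/well were treated with ten 3-fold compound doses for 72 h at 37 °C. After lysis and histone extraction, H3K27me3 was detected by AlphaLISA with anti-K27me3 acceptor beads, biotinylated anti-H3 (C-ter) antibody (3 nM final) and streptavidin donor beads (20 μg/mL final). Signals were normalized to DMSO and curve-fitted for EC50.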

[4] = 2 nM EZH2, 0.2 μM biotinylated oligonucleosomes, 0.2 μM 3H SAM, 3.6 μM H3K27me3 peptide; read-out: EZH2 nuc BSA Brij 1.5 (IC50)
[5] = read-out: EZH2 pep BSA Brij 4.0 LowE (IC50)
[6] = EZH2 nuc BSA Brij 1.5 (IC50), 2 nM EZH2, 0.2 μM biotinylated oligonucleosomes, 0.2 μM 3H SAM, 3.6 μM H3K27me3 peptide
[7] = EZH2 pep BSA Brij 4.0 LowE (IC50)
[8] = read-out: EZH2 nuc BSA Brij 1.5 (IC50); 2 nM EZH2, 0.2 μM biotinylated oligonucleosomes, 0.2 μM 3H SAM, 3.6 μM H3K27me3 peptide

Chain of EZH2 (Q15910 whole entry): as the sequence (Q15910 whole entry) above
Chain of EZH2 (O75530 whole entry partner): as the sequence (O75530 whole entry partner) above
Chain of EZH2 (Q15022 whole entry partner): as the sequence (Q15022 whole entry partner) above

| SMILES | EC50 ([3]; 72 hrs) [nM] | IC50 [1, 6] [nM] | EC50 ([3]; Homo sapiens, HeLa, 72 h) [nM] | further results |
| --- | --- | --- | --- | --- |
| COc1cc(C)[nH]c(=O)c1CNC(=O)c1c(C)n(C(C)C2CCNC(c3ccc(F)cc3)C2)c2ccccc12 (single isomer, unassigned) [Compound 31, 1-(1-(2-(4-fluorophenyl)piperidin-4-yl)ethyl)-N-((4-methoxy-6-methyl-2-oxo-1,2-dihydropyridin-3-yl)methyl)-2-methyl-1H-indole-3-carboxamide] | 400 to 2000 |  |  | IC50 [1, 4]: < 100 nM; IC50 [2, 5]: < 100 nM |
| COc1cc(C)[nH]c(=O)c1CNC(=O)c1c(C)n(C(C)C2CCNC(C(F)(F)F)C2)c2ccccc12 (single isomer, unassigned) [Compound 14, N-((4-methoxy-6-methyl-2-oxo-1,2-dihydropyridin-3-yl)methyl)-2-methyl-1-(1-(2-(trifluoromethyl)piperidin-4-yl)ethyl)-1H-indole-3-carboxamide] | < 400 | < 100 |  | IC50 [2, 7]: < 100 nM |
| COc1cc(C)[nH]c(=O)c1CNC(=O)c1c(C)n(C(C)C2CCN(C3COC3)CC2C(F)(F)F)c2ccccc12 (centres unmarked) [Compound 8, N-((4-methoxy-6-methyl-2-oxo-1,2-dihydropyridin-3-yl)methyl)-2-methyl-1-(1-(1-(oxetan-3-yl)-3-(trifluoromethyl)piperidin-4-yl)ethyl)-1H-indole-3-carboxamide] |  | < 100 | > 2000 | IC50 [2, 7]: < 100 nM |
| CCN1CCC(C(C)n2c(C)c(C(=O)NCc3c(OC)cc(C)[nH]c3=O)c3ccccc32)CC1C(F)(F)F (single isomer, unassigned) [Compound 9, 1-(1-(1-ethyl-2-(trifluoromethyl)piperidin-4-yl)ethyl)-N-((4-methoxy-6-methyl-2-oxo-1,2-dihydropyridin-3-yl)methyl)-2-methyl-1H-indole-3-carboxamide] | > 2000 | < 100 |  |  |
| COc1cc(C)[nH]c(=O)c1CNC(=O)c1c(C)n(C(C)C2CCNCC2C(F)(F)F)c2ccccc12 (centres unmarked) [Compound 19, N-((4-methoxy-6-methyl-2-oxo-1,2-dihydropyridin-3-yl)methyl)-2-methyl-1-(1-(3-(trifluoromethyl)piperidin-4-yl)ethyl)-1H-indole-3-carboxamide] |  | < 100 | > 2000 |  |
| COc1cc(C)[nH]c(=O)c1CNC(=O)c1c(C)n(C(C)C2CCNc3ccccc32)c2ccccc12 (single isomer, unassigned) [Compound 1] |  | < 100 | > 2000 |  |
| CCN1CCC(C(C)n2c(C)c(C(=O)NCc3c(OC)cc(C)[nH]c3=O)c3ccccc32)CC1C(F)(F)F (single isomer, unassigned) [Compound 10, 1-(1-(1-ethyl-2-(trifluoromethyl)piperidin-4-yl)ethyl)-N-((4-methoxy-6-methyl-2-oxo-1,2-dihydropyridin-3-yl)methyl)-2-methyl-1H-indole-3-carboxamide] | < 400 |  |  | IC50 [1, 8]: < 100 nM |
| COc1cc(C)[nH]c(=O)c1CNC(=O)c1c(C)n(C(C)C2CCN(C)C(C(F)(F)F)C2)c2ccccc12 (single isomer, unassigned) [Compound 15, N-((4-methoxy-6-methyl-2-oxo-1,2-dihydropyridin-3-yl)methyl)-2-methyl-1-(1-(1-methyl-2-(trifluoromethyl)piperidin-4-yl)ethyl)-1H-indole-3-carboxamide] | < 400 |  |  | IC50 [1, 8]: < 100 nM; IC50 [2, 7]: < 100 nM |
| COc1cc(C)[nH]c(=O)c1CNC(=O)c1c(C)n(C(C)C2CCN(C)C(c3ccc(F)cc3)C2)c2ccccc12 (centres unmarked) [Compound 33, 1-(1-(2-(4-fluorophenyl)-1-methylpiperidin-4-yl)ethyl)-N-((4-methoxy-6-methyl-2-oxo-1,2-dihydropyridin-3-yl)methyl)-2-methyl-1H-indole-3-carboxamide] |  |  | 400 to 2000 | IC50 [1, 4]: < 100 nM; IC50 [2, 5]: < 100 nM |
| COc1cc(C)[nH]c(=O)c1CNC(=O)c1c(C)n(C(C)C2CCN(CC(F)(F)F)C(C)C2)c2ccccc12 (single isomer, unassigned) [Compound 43, N-((4-methoxy-6-methyl-2-oxo-1,2-dihydropyridin-3-yl)methyl)-2-methyl-1-(1-(2-methyl-1-(2,2,2-trifluoroethyl)piperidin-4-yl)ethyl)-1H-indole-3-carboxamide] | < 400 |  |  | IC50 [1, 8]: < 100 nM; IC50 [2, 7]: < 100 nM |
| COc1cc(C)[nH]c(=O)c1CNC(=O)c1c(C)n(C(C)C2CCNC(c3ccc(F)cc3)C2)c2ccccc12 (single isomer, unassigned) [Compound 32, 1-(1-(2-(4-fluorophenyl)piperidin-4-yl)ethyl)-N-((4-methoxy-6-methyl-2-oxo-1,2-dihydropyridin-3-yl)methyl)-2-methyl-1H-indole-3-carboxamide] | > 2000 |  |  | IC50 [1, 4]: < 100 nM |
| COc1cc(C)[nH]c(=O)c1CNC(=O)c1c(C)n(C(C)C2CCNC(C(F)F)C2)c2ccccc12 (single isomer, unassigned) [Compound 36, 1-(1-(2-(difluoromethyl)piperidin-4-yl)ethyl)-N-((4-methoxy-6-methyl-2-oxo-1,2-dihydropyridin-3-yl)methyl)-2-methyl-1H-indole-3-carboxamide] | > 2000 | < 100 |  |  |
| COc1cc(C)[nH]c(=O)c1CNC(=O)c1c(C)n(C(C)C2CCN(CC3CC3)C(C(F)(F)F)C2)c2ccccc12 (single isomer, unassigned) [Compound 38, 1-(1-(1-(cyclopropylmethyl)-2-(trifluoromethyl)piperidin-4-yl)ethyl)-N-((4-methoxy-6-methyl-2-oxo-1,2-dihydropyridin-3-yl)methyl)-2-methyl-1H-indole-3-carboxamide] |  | < 100 | > 2000 |  |
| COc1cc(C)[nH]c(=O)c1CNC(=O)c1c(C)n(C(C)C2CCNC(C(F)(F)F)C2)c2ccccc12 (single isomer, unassigned) [Compound 20, N-((4-methoxy-6-methyl-2-oxo-1,2-dihydropyridin-3-yl)methyl)-2-methyl-1-(1-(2-(trifluoromethyl)piperidin-4-yl)ethyl)-1H-indole-3-carboxamide] | 400 to 2000 | < 100 |  |  |
| COc1cc(C)[nH]c(=O)c1CNC(=O)c1c(C)n(C(C)C2CCNC3CCCCC32)c2ccccc12 (centres unmarked) [Compound 4, 1-(1-(decahydroquinolin-4-yl)ethyl)-N-((4-methoxy-6-methyl-2-oxo-1,2-dihydropyridin-3-yl)methyl)-2-methyl-1H-indole-3-carboxamide] |  | < 100 | > 2000 |  |
| COc1cc(C)[nH]c(=O)c1CNC(=O)c1c(C)n(C(C)C2CCN(CC(F)(F)F)C(C)C2)c2ccccc12 (single isomer, unassigned) [Compound 42, N-((4-methoxy-6-methyl-2-oxo-1,2-dihydropyridin-3-yl)methyl)-2-methyl-1-(1-(2-methyl-1-(2,2,2-trifluoroethyl)piperidin-4-yl)ethyl)-1H-indole-3-carboxamide] |  | < 100 | 400 to 2000 |  |
